Assay results as given in ChEMBL document CHEMBL1124048, “9-(trans-2',trans-3'-dihydroxycyclopent-4'-enyl) derivatives of adenine and 3-deazaadenine: potent inhibitors of bovine liver S-adenosylhomocysteine hydrolase” (J Med Chem, 1988).

Molecular target: Adenosylhomocysteinase (Homo sapiens) (UniProt P23526)
Conditions: Bos taurus
Description: NAD+ content of the enzyme tetramer was measured by HPLC on a C 18 reverse-phase column

Chain of Adenosylhomocysteinase (Homo sapiens) (P23526 2-432 limits assumed): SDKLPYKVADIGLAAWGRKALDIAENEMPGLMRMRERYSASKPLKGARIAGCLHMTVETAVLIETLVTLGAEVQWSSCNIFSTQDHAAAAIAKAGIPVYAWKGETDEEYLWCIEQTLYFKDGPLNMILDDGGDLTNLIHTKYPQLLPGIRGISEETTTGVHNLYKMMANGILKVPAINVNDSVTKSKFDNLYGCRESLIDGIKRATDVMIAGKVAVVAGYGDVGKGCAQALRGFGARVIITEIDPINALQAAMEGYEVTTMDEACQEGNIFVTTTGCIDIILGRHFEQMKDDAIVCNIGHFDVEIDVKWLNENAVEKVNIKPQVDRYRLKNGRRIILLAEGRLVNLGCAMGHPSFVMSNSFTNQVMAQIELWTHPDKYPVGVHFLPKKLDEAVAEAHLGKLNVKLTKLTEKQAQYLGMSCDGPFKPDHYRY

NAD content (M (M of enzyme)-1) | SMILES
0.19 | Nc1ncnc2c1ncn2[C@@H]1C=C[C@@H](O)[C@H]1O
0 | Nc1ncnc2c1ncn2[C@@H]1C=C(CO)[C@@H](O)[C@H]1O
